Drawing on US20230233569A1 (Revolution Medicines, Inc., priority 2020, published 2023), this text covers IC50 for four molecules.

One assay has as its system Capan-1 (K-Ras G12V). The experiment in a line: CellTiter-Glo cell viability assay, 5-day treatment. Format: cell-based. The note with it: Homo sapiens, CAPAN-1, 120 h, 5-day treatment; read-out: Capan-1 Cell Viability assay data (K-Ras G12V, IC50). The procedure, abridged: (§1)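 Luminescence read-out after 5 days of compound exposure, with plates first brought to room temperature for roughly 30 minutes. Values are percent of averaged DMSO wells, fitted by four-parameter logistic regression.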

The next assay concerns NCI-H358 (K-Ras G12C). Described as above. The note with it: Homo sapiens, NCI-H358, 120 h, 5-day treatment; read-out: H358 Cell Viability assay data (K-Ras G12C, IC50). The assay is classed as cell-based. The procedure, abridged: as §1
Another assay has as its target KRAS G13D (Homo sapiens, UniProt P01116+P62937, G13D). Nature of the assay: Disruption of BRAF RBD interaction with Ras (FRET / MOA assay, with Cyclophilin A). Format: biochemical. The note with it: KRAS G13D; read-out: KRAS G13D FRET data IC50. In short, it runs like this:
(§2)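 TR-FRET: nucleotide-loaded K-Ras mutant or WT with Cyclophilin A and BRAF RBD, compound 10-point 3-fold from 30 μM final, 3 h at 25° C, then anti-His Eu (10 nM) and anti-GST APC (50 nM) for 1.5 h. Decreased FRET ratio versus DMSO gives IC50.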

A further assay concerns the target KRAS G12C (Homo sapiens, UniProt P01116+P62937, G12C). The assay is described as above. Format: biochemical. The note with it: read-out: KRAS G12C FRET data, IC50. In short, it runs like this: as §2
For a further assay, the target named is KRAS G13C (Homo sapiens, UniProt P01116+P62937, G13C). The description is as above. Format: biochemical. The note with it: read-out: KRAS G13C FRET data, IC50. In short, it runs like this: as §2
KRAS G13C, sequence (P01116 1-169 isoform P01116-2 G13C): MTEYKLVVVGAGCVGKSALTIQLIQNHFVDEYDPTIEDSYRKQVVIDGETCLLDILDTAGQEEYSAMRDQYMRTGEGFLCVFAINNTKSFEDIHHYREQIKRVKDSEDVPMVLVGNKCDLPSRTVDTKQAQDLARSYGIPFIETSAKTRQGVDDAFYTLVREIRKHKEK
KRAS G13C, sequence (P62937 whole entry): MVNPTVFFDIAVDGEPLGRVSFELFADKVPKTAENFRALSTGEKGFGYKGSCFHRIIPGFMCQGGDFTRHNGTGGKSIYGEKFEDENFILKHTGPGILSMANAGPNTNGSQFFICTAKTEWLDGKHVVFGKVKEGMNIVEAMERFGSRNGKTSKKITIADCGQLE
For a further assay, the target named is NRAS G12C (Homo sapiens, UniProt P01111+P62937, G12C). Described as above. The assay is classed as biochemical. The note with it: NRAS G12C; read-out: NRAS G12C FRET data IC50.
NRAS G12C, sequence (P01111 whole entry G12C): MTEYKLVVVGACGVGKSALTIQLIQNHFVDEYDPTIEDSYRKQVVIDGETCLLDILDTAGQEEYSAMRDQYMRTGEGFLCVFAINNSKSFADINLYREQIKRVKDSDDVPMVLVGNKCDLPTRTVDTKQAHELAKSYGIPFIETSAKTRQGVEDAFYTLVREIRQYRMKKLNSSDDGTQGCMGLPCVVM
NRAS G12C, sequence (P62937 whole entry): as the sequence (P62937 whole entry) above
For the next assay, the target named is KRAS G12S (Homo sapiens, UniProt P01116+P62937, G12S). The description is as above. Format: biochemical. The note with it: read-out: KRAS G12S FRET data, IC50. In short, it runs like this:
as §2

A further assay has as its target KRAS G12D (Homo sapiens, UniProt P01116+P62937, G12D). The description is as above. Format: biochemical. The note with it: read-out: KRAS G12D FRET data, IC50. The procedure, abridged: as §2
A further assay has as its target KRAS WT (Homo sapiens, UniProt P01116+P62937). Described as above. The assay is classed as biochemical. The note with it: KRAS WT; read-out: KRAS WT FRET data IC50. The procedure, abridged:
as §2

The target in a further assay is KRAS G12V (Homo sapiens, UniProt P01116+P62937, G12V). Described as above. The note with it: KRAS G12V; read-out: KRAS G12V FRET data IC50. Format: biochemical. In short, it runs like this: as §2
KRAS G12V, sequence (P01116 1-169 isoform P01116-2 G12V limits assumed): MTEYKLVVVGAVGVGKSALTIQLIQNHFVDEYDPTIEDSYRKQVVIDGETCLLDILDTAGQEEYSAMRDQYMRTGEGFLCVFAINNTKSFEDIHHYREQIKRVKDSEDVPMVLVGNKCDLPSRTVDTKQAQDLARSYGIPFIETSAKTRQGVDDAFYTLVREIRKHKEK
KRAS G12V, sequence (P62937 whole entry): as the sequence (P62937 whole entry) above
A further assay deals with NRAS WT (Homo sapiens, UniProt P01111+P62937). Described as above. The assay is classed as biochemical. The note with it: NRAS WT; read-out: NRAS WT FRET data IC50. In short, it runs like this: (§3)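 IC50 reflects compound-driven Ras:Cyclophilin A ternary complex displacing BRAF RBD, read as lowered TR-FRET ratio relative to DMSO after Eu anti-His (10 nM) and APC anti-GST (50 nM) detection for 1.5 h. Prior incubation 3 h, 25° C, with 12.5 nM GMPPNP-loaded Ras, 50 nM BRAF RBD, 25 μM Cyclophilin A; top compound 30 μM.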
NRAS WT, sequence (P01111 whole entry): as the sequence (P01111 whole entry G12C) above, with C12G counted along it
NRAS WT, sequence (P62937 whole entry): as the sequence (P62937 whole entry) above

A further assay addresses NRAS Q61K (Homo sapiens, UniProt P01111+P62937, Q61K). The description is as above. The assay is classed as biochemical. The note with it: NRAS Q61K; read-out: NRAS Q61K FRET data IC50. The procedure, abridged: as §3
Another assay deals with NRAS Q61R (Homo sapiens, UniProt P01111+P62937, Q61R). The assay is described as above. The assay is classed as biochemical. The note with it: NRAS Q61R; read-out: NRAS Q61R FRET data IC50. In short, it runs like this:
as §3

For the next assay, the target named is KRAS Q61H (Homo sapiens, UniProt P01116+P62937, Q61H). The description is as above. The assay is classed as biochemical. The note with it: KRAS Q61H; read-out: KRAS Q61H FRET data IC50. The procedure, abridged: as §3
KRAS Q61H, sequence (P01116 1-169 isoform P01116-2 Q61H limits assumed): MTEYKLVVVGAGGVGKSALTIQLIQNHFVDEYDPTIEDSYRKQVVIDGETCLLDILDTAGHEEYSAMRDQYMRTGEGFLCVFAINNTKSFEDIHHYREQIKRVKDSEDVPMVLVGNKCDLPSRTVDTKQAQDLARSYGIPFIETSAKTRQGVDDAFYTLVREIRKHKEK
KRAS Q61H, sequence (P62937 whole entry): as the sequence (P62937 whole entry) above

NRAS Q61R, sequence (P01111 whole entry Q61R): as the sequence (P01111 whole entry G12C) above, with C12G, Q61R counted along it
NRAS Q61R, sequence (P62937 whole entry): as the sequence (P62937 whole entry) above
KRAS G13D, sequence (P01116 1-169 isoform P01116-2 G13D limits assumed): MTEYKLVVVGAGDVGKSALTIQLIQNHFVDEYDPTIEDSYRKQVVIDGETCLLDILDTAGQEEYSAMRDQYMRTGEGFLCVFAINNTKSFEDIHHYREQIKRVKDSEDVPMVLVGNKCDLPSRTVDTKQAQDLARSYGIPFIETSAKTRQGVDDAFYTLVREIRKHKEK
KRAS G13D, sequence (P62937 whole entry): as the sequence (P62937 whole entry) above
KRAS G12D, sequence (P01116 1-169 isoform P01116-2 G12D limits assumed): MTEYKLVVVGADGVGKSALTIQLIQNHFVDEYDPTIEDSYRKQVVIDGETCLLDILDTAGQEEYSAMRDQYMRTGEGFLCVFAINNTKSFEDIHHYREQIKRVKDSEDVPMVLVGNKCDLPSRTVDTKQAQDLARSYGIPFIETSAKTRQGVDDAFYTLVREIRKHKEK
KRAS G12D, sequence (P62937 whole entry): as the sequence (P62937 whole entry) above
KRAS G12C, sequence (P01116 1-169 isoform P01116-2 G12C): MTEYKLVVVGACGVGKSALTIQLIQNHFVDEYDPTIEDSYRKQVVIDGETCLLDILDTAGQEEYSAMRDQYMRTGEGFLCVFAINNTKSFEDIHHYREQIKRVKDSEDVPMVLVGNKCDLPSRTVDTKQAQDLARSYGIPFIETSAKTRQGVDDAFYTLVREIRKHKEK
KRAS G12C, sequence (P62937 whole entry): as the sequence (P62937 whole entry) above
KRAS G12S, sequence (P01116 1-169 isoform P01116-2 G12S limits assumed): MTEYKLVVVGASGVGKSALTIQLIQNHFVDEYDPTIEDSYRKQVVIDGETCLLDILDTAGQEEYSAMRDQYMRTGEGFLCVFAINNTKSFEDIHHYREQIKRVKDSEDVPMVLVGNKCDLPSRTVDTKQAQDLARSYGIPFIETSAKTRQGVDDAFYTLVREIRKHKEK
KRAS G12S, sequence (P62937 whole entry): as the sequence (P62937 whole entry) above
NRAS Q61K, sequence (P01111 whole entry Q61K): as the sequence (P01111 whole entry G12C) above, with C12G, Q61K counted along it
NRAS Q61K, sequence (P62937 whole entry): as the sequence (P62937 whole entry) above
KRAS WT, sequence (P01116 1-169 isoform P01116-2 limits assumed): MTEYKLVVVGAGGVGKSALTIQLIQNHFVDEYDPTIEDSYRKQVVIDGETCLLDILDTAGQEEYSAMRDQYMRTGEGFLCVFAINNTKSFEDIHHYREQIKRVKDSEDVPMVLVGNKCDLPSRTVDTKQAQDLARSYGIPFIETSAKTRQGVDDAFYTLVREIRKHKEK
KRAS WT, sequence (P62937 whole entry): as the sequence (P62937 whole entry) above

A word on the IC50: it is the concentration at which inhibition is half-maximal. As to `CCn1c(-c2cccnc2[C@H](C)OC)c2c3cc(ccc31)-c1csc(n1)C[C@H](NC(=O)[C@H](C(C)C)N(C)C(=O)N1CC(OC)C1)C(=O)N1CC[C@H](C)[C@H](N1)C(=O)OCC(C)(C)C2` [Example A579, N-((2S)-1-(((6^3S,6^4S,4S,Z)-1^1-ethyl-1^2-(2-((S)-1-methoxyethyl)pyridin-3-yl)-6^4,10,10-trimethyl-5,7-dioxo-6^1,6^2,6^3,6^4,6^5,6^6-hexahydro-1^1H-8-oxa-2(4,2)-thiazola-1(5,3)-indola-6(1,3)-pyridazinacycloundecaphane-4-yl)amino)-3-methyl-1-oxobutan-2-yl)-3-methoxy-N-methylazetidine-1-carboxamide], the IC50 in the assay with Capan-1 (K-Ras G12V) lay within 100 to 1000 nM; with NCI-H358 (K-Ras G12C), 100 to 1000 nM; at KRAS G13D, 1000 to 10000 nM; at KRAS G12C it was 100 to 1000 nM; on KRAS G13C it was 100 to 1000 nM; on NRAS G12C it was 100 to 1000 nM. The IC50 lay within 1000 to 10000 nM on KRAS G12S; 1000 to 10000 nM on KRAS G12D; 100 to 1000 nM on KRAS WT; 100 to 1000 nM on KRAS G12V; 100 to 1000 nM on NRAS WT; 100 to 1000 nM on NRAS Q61K. Further, the 50% inhibitory concentration (IC50) on NRAS Q61R and on KRAS Q61H was 100 to 1000 nM in each case.

With `CCn1c(-c2cccnc2[C@H](C)OC)c2c3cc(ccc31)-c1csc(n1)C[C@H](NC(=O)[C@H](C(C)C)N(C)C(=O)N(C)[C@@H]1CCCN(C)C1)C(=O)N1CCC[C@H](N1)C(=O)OCC(C)(C)C2` [Example A587], the concentration for half-maximal inhibition (IC50) with Capan-1 (K-Ras G12V) was in the range of 10 to 100 nM; in the assay with NCI-H358 (K-Ras G12C), 10 to 100 nM; on KRAS G13D, 100 to 1000 nM; on KRAS G12C it was 100 to 1000 nM; at KRAS G13C, 100 to 1000 nM; on NRAS G12C, 100 to 1000 nM. Further, the IC50 on KRAS G12S lay in the range of 100 to 1000 nM; on KRAS G12D, 100 to 1000 nM; on KRAS WT it was 100 to 1000 nM; on KRAS G12V, 1000 to 10000 nM; at NRAS WT, 100 to 1000 nM; at NRAS Q61K it was 100 to 1000 nM. Moreover, the IC50 at NRAS Q61R and on KRAS Q61H was 100 to 1000 nM throughout.

Take `CCn1c(-c2cccnc2[C@H](C)OC)c2c3cc(ccc31)-c1csc(n1)C[C@H](NC(=O)[C@H](C(C)C)N(C)C(=O)N1CC[C@H](N(C)C)C1)C(=O)N1CCC[C@H](N1)C(=O)OCC(C)(C)C2` [Example A603]: the 50% inhibitory concentration (IC50) with Capan-1 (K-Ras G12V) lay in the range of 10 to 100 nM; in the assay on NCI-H358 (K-Ras G12C), 10 to 100 nM; on KRAS G13D it was 100 to 1000 nM; at KRAS G12C, 100 to 1000 nM; at KRAS G13C, 100 to 1000 nM; on NRAS G12C it was 100 to 1000 nM. Also, the IC50 at KRAS G12S, on KRAS G12D, at KRAS WT, on KRAS G12V, at NRAS WT and on NRAS Q61K was 100 to 1000 nM each time. For the same molecule, the half-inhibitory concentration (IC50) at NRAS Q61R and at KRAS Q61H was 100 to 1000 nM in each case.

In the case of `CCn1c(-c2cccnc2[C@H](C)OC)c2c3cc(ccc31)-c1csc(n1)C[C@H](NC(=O)[C@H](C(C)C)N(C)C(=O)N1CCOC[C@@H]1c1ccccc1)C(=O)N1CCC[C@H](N1)C(=O)OCC(C)(C)C2` [Example A604], the IC50 in the assay with Capan-1 (K-Ras G12V) lay in the range of 1000 to 10000 nM; in the assay on NCI-H358 (K-Ras G12C) it was 100 to 1000 nM; at KRAS G13D it was 1000 to 10000 nM; on KRAS G12C it was 1000 to 10000 nM; on KRAS G13C it was 1000 to 10000 nM; at NRAS G12C, 1000 to 10000 nM. Further, the IC50 on KRAS G12S fell in the range of 1000 to 10000 nM; on KRAS G12D it was 1000 to 10000 nM; at KRAS WT, 1000 to 10000 nM; at KRAS G12V it was 1000 to 10000 nM; at NRAS WT, 1000 to 10000 nM; at NRAS Q61K it was 100 to 1000 nM. In addition, the half-maximal inhibitory concentration (IC50) on NRAS Q61R was in the range of 1000 to 10000 nM; on KRAS Q61H it was 100 to 1000 nM.
